Measurements: patent publication US20080177220A1, “Ultrasound-Mediated Transcleral Drug Delivery” (THE CURATORS OF THE UNIVERSITY OF MISSOURI, priority 2006, published 2008)

Assays:
[1] = Diffusion of Sodium Fluorescein formulation across Cellu-Por synthetic membrane simulating ocular tissue, with or without ultrasound; format: in vitro ADME; conditions: ultrasound applied concurrently during application of the formulation, FIG. 3
Excerpt: The control results 302 display the effect of allowing the formulation to diffuse naturally, while the ultrasound results 304 display the effect of applying ultrasound concurrently during application of the formulation.

[2] = Diffusion of Sodium Fluorescein formulation through RCS tissue in a Franz diffusion cell at different ultrasound standoff distances; format: in vitro ADME, New Zealand albino rabbits; conditions: treat far, 1.00±0.01 cm standoff distance, versus 0.50±0.01 cm (treat near) / control without ultrasound, rabbit RCS tissue, FIG. 4
Excerpt: By using a standoff distance 136, drug transport can be optimized. A standoff distance is desired to optimize the cavitation effects in the Fraunhofer zone of the ultrasonic energy field. […] The control results 402 represent normal diffusion action of the formulation in the absence of ultrasound. The treat near results 404 represent diffusion of the formulation achieved using a 0.50±0.01 cm standoff distance. The treat far results 406 represent diffusion of the formulation achieved using a 1.00±0.01 cm standoff distance. […] The optimum standoff distance can vary depending on a number of factors, such as, for example, the coupling media, the transducer configuration, the targeted tissue, and the pharmaceutical formulation being administered. The optimum standoff distance for transcleral drug delivery differs from drug delivery attempted through the cornea due to the numerous factors discussed above, including inherent tissue differences and transport phenomena occurring in the blood-retina barrier.

Compound: O=C([O-])c1ccccc1-c1c2ccc(=O)cc-2oc2cc([O-])ccc12.[Na+].[Na+] [Sodium Fluorescein]
- permeability with ultrasonic waves versus control (natural diffusion) [1]: substantially higher
- permeability increase using the greater standoff distance [2]: approximately 30 times higher
